Assay results: patent US12559504B2, “Benzotriazole derivative” (UBE CORPORATION, priority 2019, dated 2026)

Tests used:
[1] = molecular target: T1, GST fusion human Keap1 (amino acid residue: 325-624) protein (Homo sapiens, UniProt Q14145); assay: Keap1-Nrf2 binding inhibition test (fluorescence polarization); conditions: compound concentration of 100 nM; read-out: inhibition rate
T1 construct: GST fusion human Keap1 (amino acid residue: 325-624) protein; purchased Protein tech Ag0779
How it was run: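 Fluorescence polarization with FITC-labelled Nrf2 peptide (FITC-Ahx-LDEETGEFL-NH2) and GST-human Keap1 (325-624) in 20 mM Tris pH 7.5, 150 mM NaCl, 0.05% Tween 20, 5 mM DTT, BSA; 30 min at room temperature, ex 482/em 530 nm. Percent inhibition at 100 nM compound, Keap1-free wells = 100%.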

NQO1 [2] = assay: NQO1 enzyme induction test (in vitro) in Hepa1c1c7 cells; format: cell-based; conditions: Mus musculus, Hepa-1c1c7, 48 h, concentration to elevate the NQO1 activity by 1.5 times, about 48 hours, read-out: EC150
How it was run: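 Mouse Hepa1c1c7 cells treated about 48 h with compound (0.1% DMSO final), then lysed. NQO1 activity read as MTT reduction at 540 nm with menadione substrate, 5 min at room temperature, and corrected for cell number by CellTiter-Glo. EC150 is the concentration raising NQO1 activity 1.5-fold.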

NQO1 [3] = assay: NQO1 expression induction test in mouse kidney (single administration); format: in vivo; conditions: Mus musculus, po, 6 h, Dose 30 mg/kg, BALB/c mouse kidney, 6 hours after administration, ratio to control group
How it was run: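 Female BALB/c mice received a single oral dose of compound in 0.5% methylcellulose, with untreated mice as controls. Six hours later, left-kidney NQO1 mRNA was measured by SYBR real-time RT-PCR normalised to GAPDH. Induction was expressed as the ratio of mean treated to mean control expression.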

[4] = Metabolism test using human liver microsome fractions; format: in vitro ADME; conditions: human liver microsomes, test compound 10 μmol/L, NADPH and UDP-glucuronic acid, 37° C.
How it was run: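 Compound depletion at 10 μmol/L final, 37 °C, followed by UV-HPLC of acetonitrile-quenched aliquots taken 0, 5, 10, 15, 20, 30 min; incubations contained microsomes (1 mg protein, human or monkey) with NADPH and UDPGA cofactors. Rate = slope over linear range.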

T1 sequence (Q14145 325-624): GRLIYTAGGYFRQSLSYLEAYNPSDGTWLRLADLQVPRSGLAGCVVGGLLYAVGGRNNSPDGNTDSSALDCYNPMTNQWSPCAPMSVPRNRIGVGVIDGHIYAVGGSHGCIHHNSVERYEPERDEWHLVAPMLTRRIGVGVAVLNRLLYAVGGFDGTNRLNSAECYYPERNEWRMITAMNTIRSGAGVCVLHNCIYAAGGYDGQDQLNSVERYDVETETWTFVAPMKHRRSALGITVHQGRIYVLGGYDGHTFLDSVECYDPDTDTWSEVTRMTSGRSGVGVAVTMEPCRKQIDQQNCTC

inhibition at 0.1 µM [1]	SMILES	EC (1.5-fold NQO1 activity) (NQO1 [2])	fold induction at 30 mg/kg (NQO1 [3])	Human metabolic rate [4]
≥ 50%	CC[C@@H]1CN(Cc2cc(C(c3ccc4c(nnn4C)c3C)C(C)(C)C(=O)O)ccc2C)Cc2ncc3ccccc3c2O1 (stereo partly drawn) [Example 25-(b), 3-(1,4-dimethyl-1H-benzo[d][1,2,3]triazol-5-yl)-3-(3-(((R)-2-ethyl-2,3-dihydro-[1,4]oxazepino[6,7-c]isoquinolin-4(5H)-yl)methyl)-4-methylphenyl)-2,2-dimethylpropanoic Acid]	0.0005 to 0.005 µM	> 6	D (200≤metabolic rate<250 pmol/min/me protein)
≥ 50%	CC[C@@H]1CN(Cc2cc(C(c3ccc4c(nnn4C)c3C)C(C)(C)C(=O)O)ccc2C)Cc2cnc3ccccc3c2O1 (stereo partly drawn) [Example 26-(b), 3-(1,4-dimethyl-1H-benzo[d][1,2,3]triazol-5-yl)-3-(3-(((R)-2-ethyl-2,3-dihydro-[1,4]oxazepino[6,7-c]quinolin-4(5H)-yl)methyl)-4-methylphenyl)-2,2-dimethylpropanoic Acid]	0.0005 to 0.005 µM	> 6	E (metabolic rate≥250 pmol/min/mg protein)
≥ 50%	CC[C@@H]1CN(Cc2cc(C(c3ccc4c(nnn4C)c3C)C(C)(C)C(=O)O)ccc2C)Cc2cc(F)c3ccccc3c2O1 (stereo partly drawn) [Example 49-(b), 3-(1,4-dimethyl-1H-benzo[d](1,2, 3)triazol-5-yl)-3-(3-(((R)-2-ethyl-7-fluoro-2,3-dihydronaphtho[2,1-f][1,4]oxazepin-4 (5H)-yl)methyl)-4-methylphenyl)-2,2-dimethylpropanoic Acid]	0.0005 to 0.005 µM	> 6	B (100≤metabolic rate<150 pmol/min/mg protein)
≥ 50%	CC[C@@H]1CN(Cc2cc(C(c3ccc4c(nnn4C)c3C)C(C)(C)C(=O)O)ccc2C)Cc2cc3cnn(C)c3cc2O1 (stereo partly drawn) [Example 50-(b), 3-(1,4-dimethyl-1H-benzo[d][1,2,3]triazol-5-yl)-3-(3-(((R)-8-ethyl-1-methyl-1,5,7,8-tetrahydro-6H-[1,4]oxazepino[6,7-f]indazol-6-yl)methyl)-4-methylphenyl)-2,2-dimethylpropanoic Acid]	0.0005 to 0.005 µM	> 6	C (150≤metabolic rate<200 pmol/min/mg protein)
≥ 50%	CC[C@@H]1CN(Cc2cc(C(c3ccc4c(nnn4C)c3C)C(C)(C)C(=O)O)ccc2C)Cc2cc3cn(C)nc3cc2O1 (stereo partly drawn) [Example 51-(b), 3-(1,4-dimethyl-1H-benzo[d][1,2,3]triazol-5-yl)-3-(3-(((R)-8-ethyl-2-methyl-2,5,7,8-tetrahydro-6H-[1,4]oxazepino[6,7-f]indazol-6-yl)methyl)-4-methylphenyl)-2,2-dimethylpropanoic Acid]	0.0005 to 0.005 µM	> 6	B (100≤metabolic rate<150 pmol/min/mg protein)
≥ 50%	CC[C@@H]1CN(Cc2cc(C(c3ccc4c(nnn4C)c3C)C(C)(C)C(=O)O)ccc2C)Cc2cc3ccncc3cc2O1 (stereo partly drawn) [Example 52-(b), 3-(1,4-dimethyl-1H-benzo[d][1,2, 3]triazol-5-yl)-3-(3-(((R)-2-ethyl-2,3-dihydro-[1,4]oxazepino[6,7-g]isoquinolin-4 (5H)-yl)methyl)-4-methylphenyl)-2,2-dimethylpropanoic Acid]	0.0005 to 0.005 µM	> 6	C (150≤metabolic rate<200 pmol/min/mg protein)
≥ 50%	CC[C@@H]1CN(Cc2cc(C(c3ccc4c(nnn4C)c3C)C(C)(C)C(=O)O)ccc2C)Cc2cc3cnccc3cc2O1 (stereo partly drawn) [Example 53, 3-(1,4-dimethyl-1H-benzo[d][1,2,3]triazol-5-yl)-3-(3-(((R)-2-ethyl-2,3-dihydro-[1,4]oxazepino[7,6-g]isoquinolin-4 (5H)-yl)methyl)-4-methylphenyl)-2,2-dimethylpropanoic Acid]	0.0005 to 0.005 µM	> 6	C (150≤metabolic rate<200 pmol/min/mg protein)
≥ 50%	CC[C@@H]1CN(Cc2cc(C(c3ccc4c(nnn4C)c3C)C(C)(C)C(=O)O)ccc2C)Cc2cc3c(F)cccc3cc2O1 (stereo partly drawn) [Example 54-(b), 3-(1,4-dimethyl-1H-benzo[d][1,2,3]triazol-5-yl)-3-(3-(((R)-2-ethyl-7-fluoro-2,3-dihydronaphtho[2,3-f][1,4]oxazepin-4(5H)-yl)methyl)-4-methylphenyl)-2,2-dimethylpropanoic Acid]	0.005 to 0.05 µM	3 to 6	B (100≤metabolic rate<150 pmol/min/mg protein)
≥ 50%	CC[C@@H]1CN(Cc2cc(C(c3ccc4c(nnn4C)c3C)C(C)(C)C(=O)O)ccc2C)Cc2ccc3cnccc3c2O1.O=C(O)C(F)(F)F.O=C(O)C(F)(F)F (stereo partly drawn) [Example 55-(b), 3-(1,4-dimethyl-1H-benzo[d][1,2,3]triazol-5-yl)-3-(3-(((R)-2-ethyl-2,3-dihydro-[1,4]oxazepino[7,6-f]isoquinolin-4(5H)-yl)methyl)-4-methylphenyl)-2,2-dimethylpropanoic Acid Ditrifluoroacetate]	0.0005 to 0.005 µM	≤ 3	C (150≤metabolic rate<200 pmol/min/mg protein)
≥ 50%	CC[C@@H]1CN(Cc2cc(C(CC(=O)O)c3ccc4c(nnn4C)c3C)ccc2C)Cc2cc3ncccc3cc2O1 (stereo partly drawn) [Example 56-(b), 3-(1,4-dimethyl-1H-benzo[d][1,2,3]triazol-5-yl)-3-(3-(((R)-2-ethyl-2,3-dihydro-[1,4]oxazepino[7,6-g]quinolin-4(5H)-yl)methyl)-4-methylphenyl)propanoic acid]	0.0005 to 0.005 µM	3 to 6	E (metabolic rate≥250 pmol/min/mg protein)
≥ 50%	CC[C@@H]1CN(Cc2cc(C(c3ccc4c(nnn4CC)c3C)C(C)(C)C(=O)O)ccc2C)Cc2cc3ncccc3cc2O1 (stereo partly drawn) [Example 59-(b), 3-(3-(((R)-2-ethyl-2,3-dihydro-[1,4]oxazepino[7,6-g]quinolin-4(5H)-yl)methyl)-4-methylphenyl)-3-(1-ethyl-4-methyl-1H-benzo[d][1,2,3]triazol-5-yl)-2,2-dimethylpropanoic Acid]	0.0005 to 0.005 µM	> 6	D (200≤metabolic rate<250 pmol/min/me protein)
≥ 50%	Cc1ccc(C(c2ccc3c(nnn3C)c2C)C(C)(C)C(=O)O)cc1CN1Cc2cc3ncccc3cc2OC(C)(C)C1 (stereo not drawn) [Example 60-(b), 3-(1,4-dimethyl-1H-benzo[d][1,2,3]triazol-5-yl)-3-(3-((2,2-dimethyl-2,3-dihydro-[1,4]oxazepino[7,6-g]quinolin-4 (5H)-yl)methyl)-4-methylphenyl)-2,2-dimethylpropanoic Acid]	0.0005 to 0.005 µM	≤ 3	D (200≤metabolic rate<250 pmol/min/me protein)
